Measured values published in patent US6194143A, “Substrates for human cytomegalovirus protease” (Boehringer Ingelheim (Canada) Ltd., priority 1998, dated 2001).
Square brackets hold non-standard residues; d marks the D form. Peptide text beside a SMILES is read from it. * marks the point of attachment. Tyr(3-NO2) = N[C@@H](Cc1ccc(O)c([N+](=O)[O-])c1)C(=O)O; AMC = Cc1cc(=O)oc2cc(N*)ccc12; Tle = CC(C)(C)[C@H](N)C(=O)O; 2Abz = Nc1ccccc1C(=O)O

Key:
[1] = biological target: T1, HCMV protease (Human cytomegalovirus, UniProt P16753); experiment: Inhibitory activity on HCMV protease (IC50); assay type: biochemical
T1 construct: UL80 gene from HCMV strain AD169, aa 1-256; made in house
T1 sequence (P16753 1-256): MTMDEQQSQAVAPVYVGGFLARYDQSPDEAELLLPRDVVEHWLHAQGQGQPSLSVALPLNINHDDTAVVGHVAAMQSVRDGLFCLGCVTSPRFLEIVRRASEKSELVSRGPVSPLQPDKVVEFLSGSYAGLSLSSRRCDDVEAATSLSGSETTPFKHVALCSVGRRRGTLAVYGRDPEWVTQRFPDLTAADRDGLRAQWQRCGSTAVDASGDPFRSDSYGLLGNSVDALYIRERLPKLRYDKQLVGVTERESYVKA
Description: The substrate of formula 1 was used to implement a 100 nM HCMV protease assay for routine screening of inhibitors. However rapid progress in the structure-activity relationship (SAR) studies eventually required a reduction of the enzyme concentration in order to differentiate between potent compounds. Indeed an IC50 value cannot be lower than half the enzyme concentration in the assay. Reducing the enzyme therefore permits accurate determination of the potency of active inhibitors.
The large reduction in Km was responsible for this substantial increase in activity and reflected the anticipated improvement in binding. The inhibitory activity of the N-terminal product ABz-Tbg-Tbg-Asn(Me)2 -Ala-OH was determined to establish if it could interfere with the course of the reaction.

[2] = biological target: T1, HCMV protease; experiment: Mode of inhibition by Dixon-plot analysis with substrate 2; assay type: biochemical; settings: Dixon-plot of initial rate of hydrolysis at different substrate 2 and inhibitor concentrations; substrate 0.4 to 2.5 Km
From the text: FIG. 1 illustrates the inhibitory effect of a peptide inhibitor on HCMV protease at various concentrations of an improved substrate of this application.
The convenient use of fluorescence in this experiment was possible since a range of substrate concentrations from 0.4 to 2.5 Km was permitted. Substrate 1 could not be used in this application since its Km value is well above the inner filter limit.

[3] = Stability of 10 mM DMSO stock solutions at 4° C.; assay type: physicochemical; settings: 10 mM in DMSO, stored at 4° C.
Description: (§1) Stock solutions (10 mM) in DMSO of the compounds prepared in examples 2, 3, 4, 5 and 6 were stored at 4° C. […] Aliquoted samples of HCMV protease 50 μM (1.4 mg/ml) were kept at -80° C. in storing buffer without detectable loss of activity over an extended period of more than a year. The calculated molecular mass of wild-type HCMV protease was 28042 Da. The concentration of enzyme on which the calculations of the turnover number, kcat, and the specificity constant, kcat /Km, were derived was expressed in terms of total monomer concentration.

[4] = Solubility of substrate; assay type: physicochemical
[5] = biological target: T1, HCMV protease; experiment: HCMV protease fluorometric assay of substrate cleavage; assay type: biochemical; settings: for kcat/Km, fold greater than for the substrate of formula 1 (unoptimized substrate): compared with substrate of formula 1
Description: (§2) Preparation of recombinant wild-type HCMV protease PCR amplified HCMV protease gene from genomic DNA (UL80 gene from HCMV strain AD169, aa 1-256) was cloned in the NdeI/BamHl restriction sites of the plasmid vector pET-17b and expressed in Escherichia Coli strain BL21(DE3)pLYSs. Following expression by induction with IPTG, cells were harvested and resuspended in lysis buffer (50 mM Tris/HCl pH 8.0, 1 mM EDTA, 1 mM DTT, 25 mM NaCl, and 1 mM PMSF) and sonicated for complete lysis and DNA breakage. Protease inclusion bodies were harvested by centrifugation. The harvested material was washed twice in lysis buffer containing 0.1% nonaethylene glycol octylphenyl ether (NP-40, Sigma Chemical Co.). Solubilization and denaturation of the harvested material were performed by resuspending the inclusion bodies in 100 mM Tris/HCl pH 8.0, 1 mM EDTA, 100 mM DTT, 50 mM NaCl, and 7 M urea and incubating at 37° C. for 2 h. After centrifugation to eliminate insoluble matter, the supernatant was extensively dialyzed in 50 mM MES pH 5.0, 0.1 mM EDTA, 10 mM DTT, and 7 M urea for cation exchange chromatography on Resource S column. The resulting pool of protease-containing fractions was then dialyzed in 25 mM Tris/HCl pH 7.8, 1 mM EDTA, and 1 M urea and diluted to ≈100 μg/ml to which 0.2 mM oxidized glutathione and 2 mM reduced glutathione were added. Incubation was performed overnight at 4° C. with gentle shaking and renaturation was then completed by extensive dialysis in 25 mM Tris/HCl pH 7.8, 1 mM EDTA, 1 mM DTT, and 100 mM NaCl followed by dialysis in storing buffer (20 mM acetate pH 5.0, 0.1 mM EDTA, 1 mM DTT, and 50 mM NaCl) before concentration of the sample to give the desired protease.
Stock solutions (10 mM) in DMSO of the compounds prepared in examples 2, 3, 4, 5 and 6 were stored at 4° C. […] Aliquoted samples of HCMV protease 50 μM (1.4 mg/ml) were kept at -80° C. in storing buffer without detectable loss of activity over an extended period of more than a year. The calculated molecular mass of wild-type HCMV protease was 28042 Da. […]

[6] = system: HCMV protease; settings: prior literature reports; cited from earlier work
[7] = biological target: T1, HCMV protease; assay type: biochemical; settings: for Km / kcat / kcat/KM (specificity constant): 200-500 nM HCMV protease, determined by HPLC
Description: as §2, §1
HPLC analysis. Specificity constant, kcat /Km, and individual parameters kcat & Km for the peptide substrate of Example 2 were determined by HPLC monitoring of the initial rate of appearance of the N-terminus cleavage product at various substrate concentrations. Incubation buffer contained 50 mM Tris/HCl pH 8, 0.5 M Na2 SO4, 50 mM NaCl, 0.1 mM EDTA, 1 mM TCEP, 3% DMSO v/v, & 0.05% w/v casein to which 20-500 μM substrate was added. Following equilibration at 30° C., the reactions were initiated by addition of 50 nM HCMV protease (total monomer concentration) from a 2.5 μM stock solution in assay buffer and quenched at regular intervals with 1% TFA up to ≈25% total hydrolysis. The aliquots were injected on a C8 reversed-phase column using a linear gradient of acetonitrile in aqueous 3mM SDS containing 0.05% H3 PO4 (22 to 28% acetonitrile at 2 min, to 30% at 4 min, to 50% at 6 min at a constant flow rate of 4 ml/min). A calibration curve of the N-terminus product was used to estimate the extent of the conversion (retention time=2.7 min). The data was fitted to the non-linear regression analysis of the Michaelis-Menten equation by the kinetic software GRAFIT (Grafit, Erithacus Software Ltd, 1989-1992, Version 3.0, Leatherbarrow, R. J., London, U.K.). A similar protocol was adopted for the peptide substrates of Examples 5 and 6. In this case the enzyme concentration used was respectively 500 nM and 200 nM. The HPLC gradient was 25 to 38% acetonitrile at 11 min, to 100% at 13 min at a constant flow rate of 4 ml/min.

## C[C@H](NC(=O)[C@H](CC(=O)N(C)C)NC(=O)[C@@H](NC(=O)[C@@H](NC(=O)c1ccccc1N)C(C)(C)C)C(C)(C)C)C(=O)O [ABz-Tbg-Tbg-Asn(Me)2 -Ala-OH] (H-[2Abz][Tle][Tle]D(NMe2)A-OH)
[1]
  IC50: > 75 µM

## CC(NC(=O)[C@H](CC(=O)N(C)C)NC(=O)[C@@H](NC(=O)CC(C)(C)C)C(C)(C)C)C(=O)C(=O)NCc1ccccc1 (stereo partly drawn) [DATbg-Tbg-Asn(Me2)-Ala-CONHCH2Ph]
[2]
  mode of inhibition: competitive

## CC(C)C[C@H](NC(=O)[C@H](CCCNC(=N)N)NC(=O)[C@H](CO)NC(=O)[C@H](CO)NC(=O)[C@H](C)NC(=O)[C@H](CC(N)=O)NC(=O)[C@@H](NC(=O)[C@@H](NC(=O)c1ccccc1N)C(C)C)C(C)C)C(=O)N[C@@H](Cc1ccc(O)c([N+](=O)[O-])c1)C(=O)N[C@@H](CCCNC(=N)N)C(=O)O [Substrate 1] (H-[2Abz]VVNASSRL[Tyr(3-NO2)]R-OH)
[3]
  stability of compound in stock solution: stable for several weeks
[4]
  solubility: limited solubility

## CC(C)C[C@H](NC(=O)[C@H](CCCNC(=N)N)NC(=O)[C@H](CO)NC(=O)[C@H](CO)NC(=O)[C@H](C)NC(=O)[C@H](CC(=O)N(C)C)NC(=O)[C@@H](NC(=O)[C@@H](NC(=O)c1ccccc1N)C(C)(C)C)C(C)(C)C)C(=O)N[C@@H](Cc1ccc(O)c([N+](=O)[O-])c1)C(=O)N[C@@H](CCCNC(=N)N)C(=O)O [Substrate 2, ABz-Tbg-Tbg-Asn(Me)2 -Ala-Ser-Ser-Arg-Leu-Tyr(3-NO2)-Arg-OH] (H-[2Abz][Tle][Tle]D(NMe2)ASSRL[Tyr(3-NO2)]R-OH)
[5]
  kcat/Km, fold greater than for the substrate of formula 1 (unoptimized substrate): 60 fold
[3]
  stability of compound in stock solution: stable for several weeks

## CC(=O)N[C@H](C(=O)N[C@H](C(=O)N[C@@H](CC(=O)N(C)C)C(=O)N[C@@H](C)C(=O)Nc1ccc2c(C)cc(=O)oc2c1)C(C)(C)C)C(C)(C)C [Substrate 3, N-Acetyl-Tbg-Tbg-Asn(Me)2 -Ala-AMC] (Ac-[Tle][Tle]D(NMe2)A-{AMC})
[5]
  kcat/Km, fold greater than for the substrate of formula 1 (unoptimized substrate): 10 fold
[5]; compared with substrate of formula 2
  kcat/Km, fold smaller than the substrate of formula 2: 6 fold
[3]
  stability of compound in stock solution: stable for several weeks

## ABz-GVVNA-SSRLAY(3-NO2)G
[6]
  Km: 134 µM
  kcat: 0.37 s⁻¹
  kcat/KM: 2750 M⁻¹ s⁻¹

## DABCYL-RGVVNA-SSRLA-EDANS
[6]
  kcat/KM: 796 M⁻¹ s⁻¹

## DABCYL-RRVVNA-S-Aba-RLD(EDANS)-NH2
[6]
  Km: 3 µM

## Y(3-NO2)GVVNA-SSRLA-ABz-K
[6]
  kcat/KM: 3167 M⁻¹ s⁻¹

## d-Biotin-Arg-Gly-Tbg-Tbg-Asn (Me) 2 -Ala-Ser-Ser-Arg-Leu-Ala-Tyr-NH2 [Substrate 5]
[7]
  Km: 19 µM
  kcat: 0.045 s⁻¹
  kcat/KM (specificity constant): 2370 M⁻¹ s⁻¹

## d-Biotin-Arg-Gly-Tbg-Tbg-Asn(Me)2 -Ala-Ser-Ser-Arg-Leu-Ala-Tyr(^125,)-NH2 [Substrate 13a]
[7]
  Km: 19 µM
  kcat: 0.045 s⁻¹
  kcat/KM (specificity constant): 2370 M⁻¹ s⁻¹
[7]; as measured by HPLC
  kcat/KM, fold greater compared to the substrate of formula 12a: 12 fold

## d-Biotin-Arg-Gly-Val-Val-Asn-Ala-Ser-Ser-Arg-Leu-Ala-Tyr-NH2 [Substrate 4]
[7]
  Km: 422 µM
  kcat: 0.086 s⁻¹
  kcat/KM (specificity constant): 205 M⁻¹ s⁻¹
